Tests used:
[1] = Kinetic solubility by analytical HPLC; type: physicochemical; details: PBS with 5% (v/v) DMSO, aqueous with cosolvent or surfactant or cyclodextrin, kinetic from dmso stock; PBS + 5% DMSO; initial concentration 300 μM; read-out: Saturation Concentration
Protocol: The initial concentration of each exemplary compound was 300 μM.

MOLM-13 = test: Cytotoxicity in cell lines; type: cell-based; details: Homo sapiens, MOLM-13; Table 4; read-out: IC50 MOLM-13
Protocol: (§1) The cytotoxicity of exemplary compounds of the application was tested in multiple cell lines including MV-4-11, MOLM-13, MCF-7, MRC9, K562 and MM.1S. The therapeutic index was evaluated by determining the toxicity of the exemplary compounds in healthy cell lines including fibroblasts and HUVEC.

K562 = test: Cytotoxicity in cell lines; type: cell-based; details: Homo sapiens, K562; Table 4; read-out: IC50 K562
Protocol: as §1

MRC9 = test: Cytotoxicity in cell lines; type: cell-based; details: Table 4
Protocol: as §1

HDAC6 [2] = target: T1, HDAC6 (Homo sapiens, UniProt Q9UBN7); test: in vitro activity-based HDAC assay; type: biochemical; details: human HDAC isoform panel, Table 1; read-out: IC50 HDAC6
T1 sequence (Q9UBN7 1-1215): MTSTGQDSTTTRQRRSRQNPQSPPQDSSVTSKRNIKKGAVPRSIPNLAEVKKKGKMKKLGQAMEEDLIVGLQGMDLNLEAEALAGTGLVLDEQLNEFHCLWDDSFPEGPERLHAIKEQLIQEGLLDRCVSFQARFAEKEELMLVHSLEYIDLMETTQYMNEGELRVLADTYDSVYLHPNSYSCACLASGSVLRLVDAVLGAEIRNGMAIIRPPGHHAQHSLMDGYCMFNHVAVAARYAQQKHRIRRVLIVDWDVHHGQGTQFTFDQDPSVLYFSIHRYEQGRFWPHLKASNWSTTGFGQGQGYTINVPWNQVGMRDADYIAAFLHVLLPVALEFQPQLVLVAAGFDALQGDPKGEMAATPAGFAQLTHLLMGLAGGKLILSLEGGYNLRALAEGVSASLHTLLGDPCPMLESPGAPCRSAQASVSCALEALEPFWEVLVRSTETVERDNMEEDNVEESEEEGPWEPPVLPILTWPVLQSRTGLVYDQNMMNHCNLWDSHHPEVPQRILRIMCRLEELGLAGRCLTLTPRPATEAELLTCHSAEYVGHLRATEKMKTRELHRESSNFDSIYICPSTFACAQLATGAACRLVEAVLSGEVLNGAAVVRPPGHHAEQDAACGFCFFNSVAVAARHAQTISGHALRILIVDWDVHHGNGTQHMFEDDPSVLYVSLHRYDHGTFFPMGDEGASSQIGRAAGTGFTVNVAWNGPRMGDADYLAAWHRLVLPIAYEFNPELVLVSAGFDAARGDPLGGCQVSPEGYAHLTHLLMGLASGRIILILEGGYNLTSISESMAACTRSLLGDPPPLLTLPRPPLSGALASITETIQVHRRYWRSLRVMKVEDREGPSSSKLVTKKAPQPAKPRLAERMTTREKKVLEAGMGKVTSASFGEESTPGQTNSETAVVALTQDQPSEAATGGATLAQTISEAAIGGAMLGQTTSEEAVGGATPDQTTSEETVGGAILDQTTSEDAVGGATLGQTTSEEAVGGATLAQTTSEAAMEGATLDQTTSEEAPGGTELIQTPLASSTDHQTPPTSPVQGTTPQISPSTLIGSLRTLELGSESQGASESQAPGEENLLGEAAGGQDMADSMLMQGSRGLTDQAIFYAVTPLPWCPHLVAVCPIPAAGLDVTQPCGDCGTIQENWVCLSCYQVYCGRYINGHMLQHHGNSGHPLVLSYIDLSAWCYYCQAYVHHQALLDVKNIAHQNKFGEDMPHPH

HDAC1 = HDAC1 (Homo sapiens, UniProt Q13547); test: in vitro activity-based HDAC assay; type: biochemical; details: human HDAC isoform panel, Table 1
Sequence of HDAC1 (Q13547 whole entry, canonical isoform): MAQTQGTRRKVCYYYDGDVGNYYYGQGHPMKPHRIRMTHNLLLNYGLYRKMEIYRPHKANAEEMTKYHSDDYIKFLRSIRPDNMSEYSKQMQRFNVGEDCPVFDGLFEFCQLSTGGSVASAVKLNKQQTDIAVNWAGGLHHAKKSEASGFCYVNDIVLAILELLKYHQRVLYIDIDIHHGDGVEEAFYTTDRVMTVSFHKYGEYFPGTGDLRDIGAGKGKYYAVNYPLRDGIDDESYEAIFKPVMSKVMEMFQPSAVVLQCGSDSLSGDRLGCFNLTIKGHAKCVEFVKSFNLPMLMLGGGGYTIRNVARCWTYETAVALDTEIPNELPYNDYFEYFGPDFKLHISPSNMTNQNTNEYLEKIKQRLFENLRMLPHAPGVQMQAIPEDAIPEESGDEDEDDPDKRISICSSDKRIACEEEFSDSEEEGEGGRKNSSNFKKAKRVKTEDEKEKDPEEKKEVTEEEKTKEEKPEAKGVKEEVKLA

HeLa cells = test: Immunofluorescence analysis of α-tubulin and histone H3 acetylation; type: cell-based; details: 6 h treatment
Source text: Similar analysis is shown for exemplary compound I-34 in FIG. 19.

HDAC6 [3] = target: T1, HDAC6; test: Enzyme kinetic parameters, time-based experiments; type: biochemical
Protocol: To determine the kinetic parameters for the formation and maintenance of the HDAC6:1-18 complex, several time-based experiments were performed, which are shown in Table 2.

[4] = Plasma stability by LC-MS; type: in vitro ADME; details: mouse plasma
Protocol: The stability of select compounds of the application in plasma was assessed quantitatively through LC-MS and the results are shown in Table 6.

panel of 97 kinases = test: Kinome screen; type: biochemical; details: kinase screen
HDAC3 = HDAC3 (Homo sapiens, UniProt O15379); test: in vitro activity-based HDAC assay; type: biochemical; details: human HDAC isoform panel, Table 1
Sequence of HDAC3 (O15379 whole entry, canonical isoform): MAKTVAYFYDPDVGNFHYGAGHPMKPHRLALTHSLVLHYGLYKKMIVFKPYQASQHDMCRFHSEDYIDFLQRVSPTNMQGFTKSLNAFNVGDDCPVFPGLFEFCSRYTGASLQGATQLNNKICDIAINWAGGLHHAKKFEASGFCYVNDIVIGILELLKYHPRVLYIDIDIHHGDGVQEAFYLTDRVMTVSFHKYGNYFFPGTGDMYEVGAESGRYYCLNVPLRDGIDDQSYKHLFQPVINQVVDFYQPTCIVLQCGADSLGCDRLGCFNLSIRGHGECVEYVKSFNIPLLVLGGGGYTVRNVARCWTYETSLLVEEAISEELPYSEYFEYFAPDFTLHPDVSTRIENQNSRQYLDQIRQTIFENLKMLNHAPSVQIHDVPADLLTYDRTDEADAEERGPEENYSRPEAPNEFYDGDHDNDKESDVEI
Sequence of HDAC3 (Q9Y618 395-489 partner limits assumed): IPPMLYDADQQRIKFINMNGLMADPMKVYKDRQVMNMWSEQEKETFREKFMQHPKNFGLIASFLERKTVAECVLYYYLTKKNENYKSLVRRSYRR

| SMILES | solubility kinetic [1] [µM] | IC50 (MOLM-13) [nM] | IC50 (K562) [nM] | IC50 (MRC9) [nM] | IC50 (HDAC6 [2]) [nM] | IC50 (HDAC1) [nM] | effect on α-tubulin acetylation (immunofluorescence) (HeLa cells) | Ki (HDAC6 [3]; HDAC6) [nM] | IC50 (HDAC6 [3]; HDAC6, no preincubation) [nM] | half-life [4] [h] | Remaining Percentage (%) 0 min ([4]; 0 min) [%] | Remaining Percentage (%) 15 min ([4]; 15 min) [%] | Remaining Percentage (%) 30 min ([4]; 30 min) [%] | Remaining Percentage (%) 45 min ([4]; 45 min) [%] | Remaining Percentage (%) 60 min ([4]; 60 min) [%] | Remaining Percentage (%) 120 min ([4]; 120 min) [%] | inhibitory activity on a panel of 97 kinases (panel of 97 kinases) | IC50 (HDAC3) [nM] |
| --- | --- | --- | --- | --- | --- | --- | --- | --- | --- | --- | --- | --- | --- | --- | --- | --- | --- | --- |
| O=C(NO)c1ccc(CN(C2CC2)S(=O)(=O)c2cc(F)c(F)c(F)c2F)cc1 [Compound I-13, 4-((N-cyclopropyl-2,3,4,5-tetrafluorophenylsulfonamido)methyl)-N-hydroxybenzamide] | 88.1 ± 1.6 | 2000 | 7400 | > 50000 | 9 | > 1000 | substantially strong effect on tubulin acetylation |  |  |  |  |  |  |  |  |  |  |  |
| O=C(NO)c1ccc(CN(Cc2cccnc2)S(=O)(=O)c2cc(F)c(F)c(F)c2F)cc1 [Compound I-18, N-hydroxy-4-((2,3,4,5-tetrafluoro-N-(pyridin-3-ylmethyl)phenylsulfonamido)methyl)benzamide] | 142 ± 2.4 |  |  |  | 2 |  |  | 1.4 | 4 | 1.82 | 100 | 96.3 | 63.0 | 54.3 | 51.3 | 50.1 | limited to no inhibitory activity | 373 |

Source: patent US20220169598A1, “HALOGENATED PHENYLSULFONAMIDE HYDROXAMIC ACID COMPOUNDS, COMPOSITIONS AND USES THEREOF AS SELECTIVE HDAC6 INHIBITORS” (2681603 ONTARIO INC., priority 2019, published 2022)
